Source: PMC5908784, “Extracellular loops 2 and 3 of the calcitonin receptor selectively modify agonist binding and efficacy” (Biochemical Pharmacology, 2018)
Positions count from the first letter of the chain named. Where no end group is shown, it is not given here.

Experiments:
Assay in all cases: Homologous whole cell competition binding
Conditions in all cases: homologous competition of 125I-sCT(8-32), whole cells, mean ± S.E.M., SEM
hCTR F359A = target: T1, hCTR F359A (Homo sapiens, UniProt P30988, F359A)
T1 construct: expressed in transfected cells
T1 sequence (P30988 25-474 F359A): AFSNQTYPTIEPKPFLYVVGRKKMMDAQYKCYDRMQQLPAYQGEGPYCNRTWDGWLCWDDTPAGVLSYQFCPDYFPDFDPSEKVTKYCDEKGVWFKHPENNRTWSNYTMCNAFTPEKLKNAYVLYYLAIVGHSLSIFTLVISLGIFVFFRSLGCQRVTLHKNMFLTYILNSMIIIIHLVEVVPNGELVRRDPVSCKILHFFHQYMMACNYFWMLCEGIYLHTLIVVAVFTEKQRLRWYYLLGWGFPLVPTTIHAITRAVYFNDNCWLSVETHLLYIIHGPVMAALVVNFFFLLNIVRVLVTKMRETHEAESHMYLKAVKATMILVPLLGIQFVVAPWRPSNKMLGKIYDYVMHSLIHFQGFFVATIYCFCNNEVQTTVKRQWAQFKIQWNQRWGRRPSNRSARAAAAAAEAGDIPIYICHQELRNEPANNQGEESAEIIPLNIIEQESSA
Outline: (§1)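 Homologous competition, intact cells, 4 °C overnight; tracer ^125I-sCT(8-32) 25–100 pM (two concs) vs cold sCT(8-32); NSB 1 μM cold peptide; γ counter; 3-param logistic IC50 → Cheng-Prusoff pKi; Bmax also estimated.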

hCTR R281A = target: T2, hCTR R281A (Homo sapiens, UniProt P30988, R281A)
T2 construct: expressed in transfected cells
T2 sequence (P30988 25-474 R281A): T1 sequence (P30988 25-474 F359A) with R257A, A335F
Outline: as §1

hCTR R362A = target: T3, hCTR R362A (Homo sapiens, UniProt P30988, R362A)
T3 construct: expressed in transfected cells
T3 sequence (P30988 25-474 R362A): T1 sequence (P30988 25-474 F359A) with A335F, R338A
Outline: as §1

hCTR G369A = target: T4, hCTR G369A (Homo sapiens, UniProt P30988, G369A)
T4 construct: c-Myc (N); expressed in transfected cells
T4 sequence (P30988 25-474 G369A): T1 sequence (P30988 25-474 F359A) with A335F, G345A
Outline: as §1

Substance: VLGKLSQELHKLQTYPRTNTGSGTP-NH2 [sCT(8-32)]
- Ki (hCTR F359A): 0.219 nM
- Ki (hCTR R281A): 0.851 nM
- Ki (hCTR R362A): 0.219 nM
- Ki (hCTR G369A): 0.229 nM
